Experimental data taken from ChEMBL document CHEMBL3352524, “Identification of arylsulfonamides as ExoU inhibitors” (Bioorg Med Chem Lett, 2014).

Tests used:
Pseudomonas aeruginosa = experiment: Inhibition of Pseudomonas aeruginosa ExoU expressed in Saccharomyces cerevisiae 14328 harboring pdr1/pdr3 genes assessed as cell death measured as yeast growth recovery at 5 uM after 48 hrs by copper-inducible promoter CUP1 assay; set-up: scale not given: the % may be the effect or the level left
[1] = Toxicity against Saccharomyces cerevisiae 14328 assessed as cell viability at 5 uM after 48 hrs; type: organism-based; settings: Saccharomyces cerevisiae 14328 cells, read-out: Activity
[2] = Cytotoxicity against HEK293T cells assessed as cell viability at 5 uM after 48 hrs; type: cell-based, HEK-293T; settings: human, read-out: Activity

Row | SMILES | Activity (Pseudomonas aeruginosa) | viability at 48 h, 5 µM [1] | viability at 48 h, 5 µM [2]
1 | Cc1cc(C)c(NS(=O)(=O)c2ccc3c(c2)OCCO3)c(C)c1 | 21% | 89.1% | 
2 | O=S(=O)(Nc1ccc2c(c1)OCCO2)c1ccc2ccccc2c1 | 36.6% | > 90% | 87.5%
3 | CC(C)(C)c1ccc(S(=O)(=O)Nc2ccc3c(c2)OCCO3)cc1 | 52.2% | > 90% | 87.7%
4 | Cc1cc(C)c(S(=O)(=O)NCCOc2ccccc2)c(C)c1 | 23.7% | > 90% | 
5 | COc1ccc(NS(=O)(=O)c2c(C)cc(C)cc2C)cc1OC | 18.5% | > 90% | 
6 | CCCCCc1ccc(S(=O)(=O)Nc2ccc3c(c2)OCCO3)cc1 | 9% | > 90% | 
7 | Cc1cc(C)c(S(=O)(=O)Nc2ccc3c(c2)OCCO3)c(C)c1 | 60.2% | > 90% | > 90%
8 | O=S(=O)(Nc1cccc2ccccc12)c1ccc(C(F)(F)F)cc1 | 45.4% | > 90% | > 90%
9 | O=S(=O)(Nc1ccc2c(c1)OCCO2)c1ccc(C(F)(F)F)cc1 | 27.6% | > 90% | 
10 | CCCc1ccc(OCCNS(=O)(=O)c2c(C)cc(C)cc2C)cc1 | 30.6% | 85.2% | 72.3%
11 | NC(=O)c1cccc2c1-c1ccccc1C2 | 84.7% | > 90% | > 90%
